Assay results: PubChem BioAssay (NCI)
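These data come from cells grown in 96-well plates and exposed to compound for 48 hours at five concentrations. Definition used: TGI = concentration required for complete inhibition of growth.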

Experiments:
Assay in all cases: NCI tumour cell line growth inhibition, 48 h
[1] = system: 786-0 renal
[2] = system: A498 renal
[3] = system: A549 NSCLC
[4] = system: ACHN renal
[5] = system: CAKI-1 renal
[6] = system: CCRF-CEM leukemia
[7] = system: COLO 205 colon
[8] = system: DLD-1 colon
[9] = system: DMS 114 small cell lung
[10] = system: DMS 273 small cell lung
[11] = system: EKVX NSCLC
[12] = system: HCC-2998 colon
[13] = system: HCT-116 colon
[14] = system: HCT-15 colon
[15] = system: HL-60(TB) leukemia
[16] = system: HOP-18 NSCLC
[17] = system: HOP-62 NSCLC
[18] = system: HOP-92 NSCLC
[19] = system: HT29 colon
[20] = system: IGROV1 ovarian
[21] = system: K-562 leukemia
[22] = system: KM12 colon
[23] = system: KM20L2 colon
[24] = system: LOX IMVI melanoma
[25] = system: LXFL 529 NSCLC
[26] = system: M14 melanoma
[27] = system: M19-MEL melanoma
[28] = system: MALME-3M melanoma
[29] = system: MOLT-4 leukemia
[30] = system: NCI-H226 lung
[31] = system: NCI-H23 lung
[32] = system: NCI-H460 lung
[33] = system: NCI-H522 lung
[34] = system: OVCAR-3 ovarian
[35] = system: OVCAR-4 ovarian
[36] = system: OVCAR-5 ovarian
[37] = system: OVCAR-8 ovarian
[38] = system: RPMI-8226 leukemia
[39] = system: RXF 393 renal
[40] = system: RXF-631 renal
[41] = system: SF-268 CNS
[42] = system: SF-295 CNS
[43] = system: SF-539 CNS
[44] = system: SK-MEL-2 melanoma
[45] = system: SK-MEL-28 melanoma
[46] = system: SK-MEL-5 melanoma
[47] = system: SK-OV-3 ovarian
[48] = system: SN12C renal
[49] = system: SNB-19 CNS
[50] = system: SNB-75 CNS
[51] = system: SNB-78 CNS
[52] = system: SW-620 colon
[53] = system: TK-10 renal
[54] = system: U251 CNS
[55] = system: UACC-257 melanoma
[56] = system: UACC-62 melanoma
[57] = system: UO-31 renal
[58] = system: XF 498 CNS
[59] = system: SR leukemia

`Cc1cc(C)nc(NS(=O)(=O)c2ccc(NC(=O)c3cccc4c(Nc5ccc(S(N)(=O)=O)cc5)c5ccccc5nc34)cc2)n1` showed a TGI [1] of over 100 µM, a TGI [2] of over 100 µM and a TGI [3] of over 100 µM. For the same compound, the TGI [4] was over 100 µM, the TGI [5] was over 100 µM and the TGI [6] was over 25.1 µM. It also gave a TGI [7] of over 62.5 µM, a TGI [8] of over 100 µM and a TGI [9] of 42.6 µM. For the same compound, the TGI [10] was over 100 µM, the TGI [11] was over 100 µM and the TGI [12] was 36.1 µM. It also gave a TGI [13] of 21.7 µM, a TGI [14] of over 100 µM and a TGI [15] of 29.6 µM. It also gave a TGI [16] of over 100 µM, a TGI [17] of 98.8 µM and a TGI [18] of 61.1 µM. The TGI [19] was 97.1 µM, the TGI [20] was 28.4 µM and the TGI [21] was over 67.6 µM. The TGI [22] was 47.3 µM, the TGI [23] was over 100 µM and the TGI [24] was 99.8 µM. It also gave a TGI [25] of over 100 µM, a TGI [26] of over 100 µM and a TGI [27] of 46.5 µM. The TGI [28] was 55.5 µM, the TGI [29] was 29.3 µM and the TGI [30] was over 100 µM. For the same compound, the TGI [31] was over 100 µM, the TGI [32] was over 100 µM and the TGI [33] was 38.7 µM. It also gave a TGI [34] of 27.6 µM, a TGI [35] of over 85.5 µM and a TGI [36] of over 100 µM. For the same compound, the TGI [37] was over 100 µM, the TGI [38] was over 100 µM and the TGI [39] was over 81.8 µM. For the same compound, the TGI [40] was over 100 µM, the TGI [41] was over 67.4 µM and the TGI [42] was over 100 µM. The TGI [43] was 20.5 µM, the TGI [44] was over 31.1 µM and the TGI [45] was over 29.3 µM. For the same compound, the TGI [46] was over 95.9 µM, the TGI [47] was 28.4 µM and the TGI [48] was over 82.6 µM. It also gave a TGI [49] of over 100 µM, a TGI [50] of over 100 µM and a TGI [51] of 52.3 µM. The TGI [52] was over 100 µM, the TGI [53] was over 100 µM and the TGI [54] was over 71.2 µM. For the same compound, the TGI [55] was 72.4 µM, the TGI [56] was over 100 µM and the TGI [57] was over 100 µM. For the same compound, the TGI [58] was 88.2 µM.
Compound `CCOP(=O)(OCC)OC1C=CC2CCC1C2` (centres undefined) has a TGI [1] of over 100 µM, a TGI [2] of over 100 µM and a TGI [3] of over 100 µM. For the same compound, the TGI [4] was over 100 µM, the TGI [5] was over 100 µM and the TGI [6] was over 100 µM. The TGI [7] was over 100 µM, the TGI [8] was over 100 µM and the TGI [9] was over 100 µM. It also gave a TGI [10] of over 100 µM, a TGI [11] of over 100 µM and a TGI [12] of over 100 µM. The TGI [13] was over 100 µM, the TGI [14] was over 100 µM and the TGI [15] was over 100 µM. The TGI [16] was over 100 µM, the TGI [17] was over 100 µM and the TGI [19] was over 100 µM. It also gave a TGI [20] of over 100 µM, a TGI [21] of over 100 µM and a TGI [22] of over 100 µM. For the same compound, the TGI [23] was over 100 µM, the TGI [24] was over 100 µM and the TGI [25] was over 100 µM. For the same compound, the TGI [26] was over 100 µM, the TGI [28] was over 100 µM and the TGI [29] was over 100 µM. It also gave a TGI [30] of over 100 µM, a TGI [31] of over 100 µM and a TGI [32] of over 100 µM. The TGI [33] was over 100 µM, the TGI [34] was over 100 µM and the TGI [35] was over 100 µM. The TGI [36] was over 100 µM, the TGI [37] was over 100 µM and the TGI [38] was 54.2 µM. It also gave a TGI [39] of over 100 µM, a TGI [40] of over 100 µM and a TGI [41] of over 100 µM. For the same compound, the TGI [42] was over 100 µM, the TGI [43] was over 100 µM and the TGI [44] was over 100 µM. It also gave a TGI [45] of over 100 µM, a TGI [46] of over 100 µM and a TGI [47] of over 100 µM. The TGI [48] was over 100 µM, the TGI [49] was over 100 µM and the TGI [50] was over 100 µM. It also gave a TGI [51] of over 100 µM, a TGI [59] of 58.7 µM and a TGI [53] of over 100 µM. The TGI [54] was over 100 µM, the TGI [55] was over 100 µM and the TGI [56] was over 100 µM. The TGI [57] was over 100 µM and the TGI [58] was over 100 µM.
